{"source": "ChEMBL document CHEMBL5316266", "about": "“Ligand-Based Design on the Dog-Bone-Shaped BIBR1532 Pharmacophoric Features and Synthesis of Novel Analogues as Promising Telomerase Inhibitors with In Vitro and In Vivo Evaluations” (J Med Chem, 2023)", "key": {"Ehrlich [1]": {"tested_on": "Ehrlich", "experiment": "Anticancer activity against mouse solid Ehrlich carcinoma implanted in Swiss albino mouse assessed as reduction in tumor volume at 5 mg/kg administered thrice per week for 2 weeks starting from day 7 post tumor implantation relative to DOX", "format": "functional", "parameters": "scale not given: the % may be the effect or the level left"}, "Ehrlich [2]": {"tested_on": "Ehrlich", "experiment": "(§1) Anticancer activity against mouse solid Ehrlich carcinoma cells implanted in Swiss albino mouse assessed as increase in lymphocyte count at 5 mg/kg administered thrice per week for 2 weeks starting from day 7 post tumor implantation by hematological assay (reference value: 35.57 +/- 8.34 %)", "format": "functional"}, "MCF7 [3]": {"tested_on": "MCF7", "experiment": "Induction of apoptosis in human MCF7 cells assessed as total apoptotic cells incubated for 48 hrs by Annexin-V/FITC staining based flow cytometry (reference value: 1.73 %)", "format": "functional"}, "Ehrlich [4]": {"tested_on": "Ehrlich", "experiment": "(§2) Anticancer activity against mouse solid Ehrlich carcinoma cells implanted in Swiss albino mouse assessed as decrease in serum albumin level at 5 mg/kg administered thrice per week for 2 weeks by biochemical assay tarting from day 7 post tumor implantation by biochemical assay relative to control", "format": "functional", "parameters": "scale not given: the % may be the effect or the level left"}, "Ehrlich [5]": {"tested_on": "Ehrlich", "experiment": "Anticancer activity against mouse solid Ehrlich carcinoma implanted in Swiss albino mouse assessed as reduction in tumor weight at 5 mg/kg administered thrice per week for 2 weeks starting from day 7 post tumor implantation relative to DOX", "format": "functional", "parameters": "scale not given: the % may be the effect or the level left"}, "Ehrlich [6]": {"tested_on": "Ehrlich", "experiment": "Anticancer activity against mouse solid Ehrlich carcinoma implanted in Swiss albino mouse assessed as reduction in tumor volume at 5 mg/kg administered thrice per week for 2 weeks starting from day 7 post tumor implantation relative to control", "format": "functional", "parameters": "scale not given: the % may be the effect or the level left"}, "Ehrlich [7]": {"tested_on": "Ehrlich", "experiment": "Anticancer activity against mouse solid Ehrlich carcinoma cells implanted in Swiss albino mouse assessed as decrease in serum ALT level at 5 mg/kg administered thrice per week for 2 weeks starting from day 7 post tumor implantation by biochemical assay relative to control", "format": "functional", "parameters": "scale not given: the % may be the effect or the level left"}, "Ehrlich [8]": {"tested_on": "Ehrlich", "experiment": "Anticancer activity against mouse solid Ehrlich carcinoma cells implanted in Swiss albino mouse assessed as necrotic cells at 5 mg/kg administered thrice per week for 2 weeks starting from day 7 post tumor implantation by H and E staining based histopathological analysis relative to control", "format": "functional"}, "A549": {"tested_on": "A549", "experiment": "Cytotoxicity against human A549 cells assessed as inhibition of cell growth incubated for 72 hrs by MTT assay", "format": "functional, cell-based", "conditions": "A549, 72 h"}, "[9]": {"experiment": "Toxicity in Swiss albino mouse implanted with mouse solid Ehrlich carcinoma assessed as portal tract inflammation in liver at 5 mg/kg administered thrice per week for 2 weeks starting from day 7 post tumor implantation by H and E staining based histopathological analysis", "format": "organism-based", "conditions": "in vivo, 336 h"}, "Ehrlich [10]": {"tested_on": "Ehrlich", "experiment": "Anticancer activity against mouse solid Ehrlich carcinoma implanted in Swiss albino mouse assessed as reduction in tumor weight at 5 mg/kg administered thrice per week for 2 weeks starting from day 7 post tumor implantation relative to control", "format": "functional", "parameters": "scale not given: the % may be the effect or the level left"}, "[11]": {"experiment": "Toxicity in Swiss albino mouse implanted with mouse solid Ehrlich carcinoma assessed as tubular injury at 5 mg/kg administered thrice per week for 2 weeks starting from day 7 post tumor implantation by H and E staining based histopathological analysis", "format": "organism-based", "conditions": "in vivo, 336 h"}, "[12]": {"experiment": "Toxicity in Swiss albino mouse implanted with mouse solid Ehrlich carcinoma assessed as mesangial expansion at 5 mg/kg administered thrice per week for 2 weeks starting from day 7 post tumor implantation by H and E staining based histopathological analysis", "format": "organism-based", "conditions": "in vivo, 336 h"}, "MCF7 [13]": {"tested_on": "MCF7", "experiment": "Cell cycle arrest in human MCF7 cells assessed as accumulation of cells at S phase at 3.1 uM incubated for 48 hrs by PI staining based flow cytometry (reference value: 28.71 %)", "format": "functional"}, "[14]": {"experiment": "Toxicity in Swiss albino mouse implanted with mouse solid Ehrlich carcinoma assessed as confluent necrosis in liver at 5 mg/kg administered thrice per week for 2 weeks starting from day 7 post tumor implantation by H and E staining based histopathological analysis", "format": "organism-based", "conditions": "in vivo, 336 h"}, "Ehrlich [15]": {"tested_on": "Ehrlich", "experiment": "Anticancer activity against mouse solid Ehrlich carcinoma implanted in Swiss albino mouse assessed as increase in tumor inhibition ratio at 5 mg/kg administered thrice per week for 2 weeks starting from day 7 post tumor implantation relative to control", "format": "functional", "parameters": "scale not given: the % may be the effect or the level left"}, "Ehrlich [16]": {"tested_on": "Ehrlich", "experiment": "as §2, with “total protein” for “albumin”", "format": "functional", "parameters": "scale not given: the % may be the effect or the level left"}, "Ehrlich [17]": {"tested_on": "Ehrlich", "experiment": "as §1, with “RBC” for “lymphocyte”, “count measured per million cells” for “count”, “2.93” for “35.57”, “0.18 10^6/ml)” for “8.34 %)”", "format": "functional"}, "MCF7 [18]": {"tested_on": "MCF7", "experiment": "Cytotoxicity against human MCF7 cells assessed as inhibition of cell growth incubated for 72 hrs by MTT assay", "format": "functional, cell-based", "conditions": "MCF7, 72 h"}, "Ehrlich [19]": {"tested_on": "Ehrlich", "experiment": "Anticancer activity against mouse solid Ehrlich carcinoma cells implanted in Swiss albino mouse assessed as decrease in serum AST level at 5 mg/kg administered thrice per week for 2 weeks starting from day 7 post tumor implantation by biochemical assay relative to control", "format": "functional", "parameters": "scale not given: the % may be the effect or the level left"}, "[20]": {"experiment": "Toxicity in Swiss albino mouse implanted with mouse solid Ehrlich carcinoma assessed as hydropic degeneration of hepatocytes at 5 mg/kg administered thrice per week for 2 weeks starting from day 7 post tumor implantation by H and E staining based histopathological analysis", "format": "organism-based", "conditions": "in vivo, 336 h"}, "Ehrlich [21]": {"tested_on": "Ehrlich", "experiment": "Anticancer activity against mouse solid Ehrlich carcinoma cells implanted in Swiss albino mouse assessed as increase in hemoglobin level at 5 mg/kg administered thrice per week for 2 weeks starting from day 7 post tumor implantation by hematological assay (reference value: 4.67 +/- 0.19 g/dl)", "format": "functional"}, "Ehrlich [22]": {"tested_on": "Ehrlich", "experiment": "Anticancer activity against mouse solid Ehrlich carcinoma cells implanted in Swiss albino mouse assessed as increase in monocyte count at 5 mg/kg administered thrice per week for 2 weeks starting from day 7 post tumor implantation by hematological assay (reference value: 7.42 +/- 0.52 %)", "format": "functional"}, "Ehrlich [23]": {"tested_on": "Ehrlich", "experiment": "Anticancer activity against mouse solid Ehrlich carcinoma cells implanted in Swiss albino mouse assessed as increase in neutrophil count at 5 mg/kg administered thrice per week for 2 weeks starting from day 7 post tumor implantation by hematological assay (reference value: 55.43 +/- 8.44 %)", "format": "functional"}, "[24]": {"target": "Telomerase reverse transcriptase (Homo sapiens) (UniProt O14746)", "sequence (O14746 whole entry)": "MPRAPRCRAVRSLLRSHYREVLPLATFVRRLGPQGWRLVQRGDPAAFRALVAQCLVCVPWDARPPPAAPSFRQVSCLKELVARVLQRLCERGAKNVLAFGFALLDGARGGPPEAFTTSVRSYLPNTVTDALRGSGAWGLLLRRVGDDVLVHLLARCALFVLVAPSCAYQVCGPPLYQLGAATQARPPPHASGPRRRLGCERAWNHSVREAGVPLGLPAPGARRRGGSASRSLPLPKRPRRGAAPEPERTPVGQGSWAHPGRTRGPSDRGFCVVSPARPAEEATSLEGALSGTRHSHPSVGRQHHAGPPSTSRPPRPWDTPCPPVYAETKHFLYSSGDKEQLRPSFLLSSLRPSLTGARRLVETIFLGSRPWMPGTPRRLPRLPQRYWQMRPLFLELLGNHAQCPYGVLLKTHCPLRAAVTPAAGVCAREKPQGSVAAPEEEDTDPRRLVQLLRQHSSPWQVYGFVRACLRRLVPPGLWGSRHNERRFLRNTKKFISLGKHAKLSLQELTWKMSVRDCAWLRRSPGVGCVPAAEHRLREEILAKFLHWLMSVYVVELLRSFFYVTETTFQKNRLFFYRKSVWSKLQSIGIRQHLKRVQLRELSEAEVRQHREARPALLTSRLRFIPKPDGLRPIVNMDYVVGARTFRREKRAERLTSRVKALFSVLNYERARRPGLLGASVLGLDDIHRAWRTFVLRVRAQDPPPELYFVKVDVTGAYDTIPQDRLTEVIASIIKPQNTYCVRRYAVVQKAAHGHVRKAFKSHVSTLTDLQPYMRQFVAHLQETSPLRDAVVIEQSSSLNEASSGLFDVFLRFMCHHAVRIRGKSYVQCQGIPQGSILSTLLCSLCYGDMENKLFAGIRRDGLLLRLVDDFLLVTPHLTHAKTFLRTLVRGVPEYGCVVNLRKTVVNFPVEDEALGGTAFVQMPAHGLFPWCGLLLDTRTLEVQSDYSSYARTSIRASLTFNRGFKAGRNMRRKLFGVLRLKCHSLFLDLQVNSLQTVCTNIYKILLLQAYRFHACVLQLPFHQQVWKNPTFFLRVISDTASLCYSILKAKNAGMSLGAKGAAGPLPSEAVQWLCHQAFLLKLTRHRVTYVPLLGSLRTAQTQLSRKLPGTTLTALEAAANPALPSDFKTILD", "experiment": "Inhibition of telomerase (unknown origin) by qRT-PCR analysis relative to control", "parameters": "concentration or dose not given beside the values", "conditions": "concentration not given here"}}}
{"smiles": "Cc1ccc(-c2ccc(SCC(=O)Nc3sc4c(c3C#N)CCC4)nn2)cc1", "values": [{"measurement": "Activity", "setting": "Ehrlich [1]", "value": 4.3, "unit": "%"}, {"measurement": "Activity", "setting": "Ehrlich [2]", "value": 39.14, "unit": "%"}, {"measurement": "Activity", "setting": "MCF7 [3]", "value": 42.51, "unit": "%"}, {"measurement": "Activity", "setting": "Ehrlich [4]", "value": 28.31, "unit": "%"}, {"measurement": "Activity", "setting": "Ehrlich [5]", "value": 8.48, "unit": "%"}, {"measurement": "Activity", "setting": "Ehrlich [6]", "value": 62.12, "unit": "%"}, {"measurement": "Activity", "setting": "Ehrlich [7]", "value": 36.12, "unit": "%"}, {"measurement": "Activity", "setting": "Ehrlich [8]", "value": ">90", "unit": "%"}, {"measurement": "IC50", "setting": "A549", "value": 17.1, "unit": "µg/mL"}, {"measurement": "Activity", "setting": "[9]", "value": "Toxic"}, {"measurement": "Activity", "setting": "Ehrlich [10]", "value": 74.34, "unit": "%"}, {"measurement": "Activity", "setting": "[11]", "value": "Toxic"}, {"measurement": "Activity", "setting": "[12]", "value": "Toxic"}, {"measurement": "Activity", "setting": "MCF7 [13]", "value": 42.02, "unit": "%"}, {"measurement": "Activity", "setting": "[14]", "value": "Non-Toxic"}, {"measurement": "Activity", "setting": "Ehrlich [15]", "value": 62.12, "unit": "%"}, {"measurement": "Activity", "setting": "Ehrlich [16]", "value": 55.54, "unit": "%"}, {"measurement": "Activity", "setting": "Ehrlich [17]", "value": "4.53 10^6/ml"}, {"measurement": "IC50", "setting": "MCF7 [18]", "value": 9.47, "unit": "µg/mL"}, {"measurement": "Activity", "setting": "Ehrlich [19]", "value": 29.77, "unit": "%"}, {"measurement": "Activity", "setting": "[20]", "value": "Toxic"}, {"measurement": "Activity", "setting": "Ehrlich [21]", "value": 6.74, "unit": "g/dL"}, {"measurement": "Activity", "setting": "Ehrlich [22]", "value": 9.72, "unit": "%"}]}
{"smiles": "COc1cccc2c1C(=O)c1c(O)c3c(c(O)c1C2=O)C[C@@](O)(C(=O)CO)C[C@@H]3O[C@H]1C[C@H](N)[C@H](O)[C@H](C)O1", "note": "[DOXORUBICIN]", "values": [{"measurement": "Activity", "setting": "Ehrlich [2]", "value": 36.29, "unit": "%"}, {"measurement": "Activity", "setting": "Ehrlich [4]", "value": 35.71, "unit": "%"}, {"measurement": "Activity", "setting": "Ehrlich [7]", "value": 39.16, "unit": "%"}, {"measurement": "Activity", "setting": "Ehrlich [8]", "value": ">90", "unit": "%"}, {"measurement": "Activity", "setting": "[9]", "value": "Non-Toxic"}, {"measurement": "Activity", "setting": "[11]", "value": "Toxic"}, {"measurement": "Activity", "setting": "[12]", "value": "Toxic"}, {"measurement": "Activity", "setting": "[14]", "value": "Toxic"}, {"measurement": "Activity", "setting": "Ehrlich [15]", "value": 60.4, "unit": "%"}, {"measurement": "Activity", "setting": "Ehrlich [16]", "value": 48.4, "unit": "%"}, {"measurement": "Activity", "setting": "Ehrlich [17]", "value": "4.94 10^6/ml"}, {"measurement": "Activity", "setting": "Ehrlich [23]", "value": 54.14, "unit": "%"}, {"measurement": "Activity", "setting": "Ehrlich [19]", "value": 23.43, "unit": "%"}, {"measurement": "Activity", "setting": "[20]", "value": "Toxic"}, {"measurement": "Activity", "setting": "Ehrlich [21]", "value": 7.34, "unit": "g/dL"}, {"measurement": "Activity", "setting": "Ehrlich [22]", "value": 8.42, "unit": "%"}]}
{"smiles": "N#Cc1c(NC(=O)CSc2ccc(-c3ccc(F)cc3)nn2)sc2c1CCC2", "values": [{"measurement": "inhibition", "setting": "[24]", "value": 10.8, "unit": "%"}]}
{"smiles": "N#Cc1c(NC(=O)CSc2ccc(-c3ccccc3)nn2)sc2c1CCC2", "values": [{"measurement": "inhibition", "setting": "[24]", "value": 10.8, "unit": "%"}]}
{"smiles": "N#Cc1c(NC(=O)CSc2ccc(-c3ccc(Br)cc3)nn2)sc2c1CCCC2", "values": [{"measurement": "inhibition", "setting": "[24]", "value": 10.8, "unit": "%"}]}
{"smiles": "N#Cc1c(NC(=O)CSc2ccc(-c3ccc(Cl)cc3)nn2)sc2c1CCC2", "values": [{"measurement": "inhibition", "setting": "[24]", "value": 10.8, "unit": "%"}]}
{"smiles": "N#Cc1c(NC(=O)CSc2ccc(-c3ccc(F)cc3)nn2)sc2c1CCCC2", "values": [{"measurement": "inhibition", "setting": "[24]", "value": 10.8, "unit": "%"}]}
{"smiles": "COc1ccc(-c2ccc(SCC(=O)Nc3sc4c(c3C#N)CCC4)nn2)cc1", "values": [{"measurement": "inhibition", "setting": "[24]", "value": 10.8, "unit": "%"}]}
{"smiles": "Cc1ccc(-c2ccc(SCC(=O)Nc3sc4c(c3C#N)CCCC4)nn2)cc1", "values": [{"measurement": "inhibition", "setting": "[24]", "value": 49.1, "unit": "%"}, {"measurement": "IC50", "setting": "A549", "value": 63.8, "unit": "µg/mL"}, {"measurement": "IC50", "setting": "MCF7 [18]", "value": 34.5, "unit": "µg/mL"}]}
{"smiles": "N#Cc1c(NC(=O)CSc2ccc(-c3ccc(Cl)cc3)nn2)sc2c1CCCC2", "values": [{"measurement": "inhibition", "setting": "[24]", "value": 10.8, "unit": "%"}]}
{"smiles": "N#Cc1c(NC(=O)CSc2ccc(-c3ccccc3)nn2)sc2c1CCCC2", "values": [{"measurement": "inhibition", "setting": "[24]", "value": 10.8, "unit": "%"}]}
{"smiles": "COc1ccc(-c2ccc(SCC(=O)Nc3sc4c(c3C#N)CCCC4)nn2)cc1", "values": [{"measurement": "inhibition", "setting": "[24]", "value": 10.8, "unit": "%"}]}
{"smiles": "N#Cc1c(NC(=O)CSc2ccc(-c3ccc(Br)cc3)nn2)sc2c1CCC2", "values": [{"measurement": "inhibition", "setting": "[24]", "value": 10.8, "unit": "%"}]}
